Test system: 653999-131-R-J2-PDC complex spheroid viability
Assay: Anticancer human tumor 653999-131-R-J2-PDC patient-derived lung adenocarcinoma cell line growth inhibition
Conditions: for IC50: curve of first compound; for viability, T/C: stronger effect = lower value
Excerpt: Multicellular complex tumor spheroid response to LSD1 Inhibitor Iadademstat in combination with a variety of drugs and investigational agents in selected tumor cell lines
The current study was undertaken to assess response to LSD1 inhibitors in combination with standard-of-care drugs and investigational agents in solid tumor complex spheroid models as well as in the K-562 leukemia. Complex spheroids include a stromal component modeled by human endothelial cells (HUVEC) and fibroblasts modeled by human mesenchymal stem cells (MSCs). The concentration ranges selected for each drug and investigational agent were based upon clinically achievable concentrations if the clinical Cmax of the agent was known.
Compounds. The drugs and investigational agents used in this study are listed on Table 1. All of the agents used, including staurosporine (NSC755774) and gemcitabine (NSC613327), were obtained from the Developmental Therapeutics Program, NCI. FDA-approved anticancer drugs are available from the NCI at http://dtp.nci.nih.gov/branches/dscb/oncology_drugset_explanation.html. Drugs and investigational agents were >95% pure by proton nuclear magnetic resonance (NMR) and liquid chromatography/mass spectrometry (LC/MS). Stock solutions were prepared at 400x in DMSO, stored at -70 degrees C, and diluted in fresh medium prior to their use. The final concentration of DMSO in cell culture wells never exceeded 0.25% (v/v). The FDA-approved anticancer drug set is available from the Developmental Therapeutics Program at https://dtp.cancer.gov/organization/dscb/obtaining/available_plates.htm. All drugs and investigational agents were tested over a range starting from a high concentration at or near the clinical Cmax and decreasing in half-log increments. If the clinical Cmax for an agent had not been determined, the highest concentration tested was 10 microM.
Cell Lines. The patient-derived cancer cell (PDC) lines: 292921-168-R-J2-PDC, K24384-001-R-PDC, and 521955-158-R2-J5-PDC pancreatic carcinomas, 556581-035-R-J1 ovarian carcinoma, 324938-238-R-J1-PDC, 855422-203-R-J1-PDC and 883617-216-R-J1-PDC urothelial bladder carcinomas, 743489-274-T-PDC renal cell carcinoma, 138582-R-J1 Merkel cell tumor, K60290-347-R-J1 and K57222-313-R-J1-PDC glioblastomas, 653999-131-R-J2-PDC, LG0703-F948-PDC, and 349418-098-R-PDC non-small cell lung carcinomas, 885512-296-R-J2-PDC, 171881-019-R-J1-PDC breast carcinomas and 186277-243-T-J2-PDC and 233499-124-R-J2-PDC colon carcinomas were obtained from the NCI Patient-Derived Models Repository (PDMR, https://pdmr.cancer.gov). The established cell lines NCI/ADR-RES (RRID:CVCL_14520 and OVCAR-5 (RRID:CVCL_1628) ovarian carcinomas, 786-O (RRID:CVCL_1051) and A498 (RRID:CVCL_A498) renal cell carcinoma, NCI-H211 (ATCC, cat. CRL-5824; RRID:CVCL_1529), NCI-H196 (ATCC, cat. CRL-5823, RRID:CVCL_1509), SW 1271 (ATCC, cat. CRL-2177, RRID:CVCL_1716) and NCI-H1876 (ATCC, cat. CRL-5902, RRID:CVCL_1503) small cell lung carcinomas, MDA-MB-231 (RRID:CVCL_0062) and MDA-MB-468 (RRID:CVCL_0419)breast carcinomas (10-12). Pooled donor human umbilical vein endothelial cells (HUVEC, Lonza, cat. CC-2519) and human mesenchymal stem cells (hMSC, Lonza, cat. PT-2501) were purchased from Lonza (Walkersville, MD).
Cell Culture. All cells were maintained in an incubator at 37 degrees C and 5% CO2 with 95% humidity. The PDC lines were cultured according to standard operating procedures established by the NCI PDMR (https://pdmr.cancer.gov). Briefly all PDCs were thawed and cultured in Matrigel-coated flasks prepared with a working solution of 1X Ham's F-12 nutrient mix, without supplementation (Invitrogen, Waltham, MA, cat. 11765054), 100 U/mL penicillin-streptomycin (Invitrogen, cat. 15140122), and 2.5% Matrigel (Corning Inc., Corning, NY, cat. 354248) for the first three passages. […]

[1] = second compound 0.1 µM, first compound 0.00316 µM
[2] = second compound 0.1 µM, first compound 0.01 µM
[3] = second compound 0.1 µM, first compound 0.0316 µM
[4] = second compound 0.1 µM, first compound 0.1 µM
[5] = second compound 0.316 µM, first compound 0.00316 µM
[6] = second compound 0.316 µM, first compound 0.01 µM
[7] = second compound 0.316 µM, first compound 0.0316 µM
[8] = second compound 0.316 µM, first compound 0.1 µM
[9] = second compound 1 µM, first compound 0.00316 µM
[10] = second compound 1 µM, first compound 0.01 µM
[11] = second compound 1 µM, first compound 0.0316 µM
[12] = second compound 1 µM, first compound 0.1 µM
[13] = second compound 3.16 µM, first compound 0.00316 µM
[14] = second compound 3.16 µM, first compound 0.01 µM
[15] = second compound 3.16 µM, first compound 0.0316 µM
[16] = second compound 3.16 µM, first compound 0.1 µM
[17] = second compound 10 µM, first compound 0.00316 µM
[18] = second compound 10 µM, first compound 0.01 µM
[19] = second compound 10 µM, first compound 0.0316 µM
[20] = second compound 10 µM, first compound 0.1 µM
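Note: spheroids exposed to agents for seven days before readout.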

Work on `CC[C@@]1(O)C(=O)OCc2c1cc1n(c2=O)Cc2cc3c(CN(C)C)c(O)ccc3nc2-1` + NC1CC1c1ccc(-c2cccc(O)c2)cc1 yielded an IC50 (second compound 0.1 µM) of 11.6 nM, an IC50 (second compound 0.316 µM) of 9.2 nM and an IC50 (second compound 1 µM) of 9.32 nM. It also gave an IC50 (second compound 3.16 µM) of 11.3 nM, an IC50 (second compound 10 µM) of 13.9 nM and a viability, T/C (second compound 0.1 µM, first compound 0.000316 µM) of 114%. It also gave a viability, T/C (second compound 0.1 µM, first compound 0.001 µM) of 92.8%, a viability, T/C [1] of 85% and a viability, T/C [2] of 49.6%. The viability, T/C [3] was 33.6%, the viability, T/C [4] was 27.9% and the viability, T/C (second compound 0.316 µM, first compound 0.000316 µM) was 111%. It also gave a viability, T/C (second compound 0.316 µM, first compound 0.001 µM) of 108%, a viability, T/C [5] of 83.8% and a viability, T/C [6] of 45.6%. The viability, T/C [7] was 35.6%, the viability, T/C [8] was 23.2% and the viability, T/C (second compound 1 µM, first compound 0.000316 µM) was 82.6%. It also gave a viability, T/C (second compound 1 µM, first compound 0.001 µM) of 101%, a viability, T/C [9] of 79.6% and a viability, T/C [10] of 47.4%. It also gave a viability, T/C [11] of 35.8%, a viability, T/C [12] of 25.5% and a viability, T/C (second compound 3.16 µM, first compound 0.000316 µM) of 91.6%. It also gave a viability, T/C (second compound 3.16 µM, first compound 0.001 µM) of 85.8%, a viability, T/C [13] of 87.1% and a viability, T/C [14] of 52%. For the same compound, the viability, T/C [15] was 31.9%, the viability, T/C [16] was 27.9% and the viability, T/C (second compound 10 µM, first compound 0.000316 µM) was 86.9%. For the same compound, the viability, T/C (second compound 10 µM, first compound 0.001 µM) was 87.6%, the viability, T/C [17] was 80.7% and the viability, T/C [18] was 54.9%. For the same compound, the viability, T/C [19] was 36.1% and the viability, T/C [20] was 26.4%.

`COc1cc(C2c3cc4c(cc3C(OC3OC5COC(C)OC5C(O)C3O)C3COC(=O)C23)OCO4)cc(OC)c1O` (stereo not given) + NC1CC1c1ccc(-c2cccc(O)c2)cc1 gave an IC50 (second compound 0.1 µM) of 166 nM, an IC50 (second compound 0.316 µM) of 135 nM and an IC50 (second compound 1 µM) of 110 nM. The IC50 (second compound 3.16 µM) was 97.6 nM, the IC50 (second compound 10 µM) was 248 nM and the viability, T/C (second compound 0.1 µM, first compound 0.00949 µM) was 83.5%. For the same compound, the viability, T/C (second compound 0.1 µM, first compound 0.03 µM) was 67.2%, the viability, T/C (second compound 0.1 µM, first compound 0.0949 µM) was 57.9% and the viability, T/C (second compound 0.1 µM, first compound 0.3 µM) was 41.4%. It also gave a viability, T/C (second compound 0.1 µM, first compound 0.949 µM) of 37%, a viability, T/C (second compound 0.1 µM, first compound 3 µM) of 27.8% and a viability, T/C (second compound 0.316 µM, first compound 0.00949 µM) of 75.4%. It also gave a viability, T/C (second compound 0.316 µM, first compound 0.03 µM) of 62.9%, a viability, T/C (second compound 0.316 µM, first compound 0.0949 µM) of 50.3% and a viability, T/C (second compound 0.316 µM, first compound 0.3 µM) of 45.9%. The viability, T/C (second compound 0.316 µM, first compound 0.949 µM) was 34.8%, the viability, T/C (second compound 0.316 µM, first compound 3 µM) was 25.2% and the viability, T/C (second compound 1 µM, first compound 0.00949 µM) was 75.7%. It also gave a viability, T/C (second compound 1 µM, first compound 0.03 µM) of 64%, a viability, T/C (second compound 1 µM, first compound 0.0949 µM) of 51.8% and a viability, T/C (second compound 1 µM, first compound 0.3 µM) of 38.3%. For the same compound, the viability, T/C (second compound 1 µM, first compound 0.949 µM) was 35.9%, the viability, T/C (second compound 1 µM, first compound 3 µM) was 26.1% and the viability, T/C (second compound 3.16 µM, first compound 0.00949 µM) was 77.3%. The viability, T/C (second compound 3.16 µM, first compound 0.03 µM) was 66.2%, the viability, T/C (second compound 3.16 µM, first compound 0.0949 µM) was 49.4% and the viability, T/C (second compound 3.16 µM, first compound 0.3 µM) was 39.5%. The viability, T/C (second compound 3.16 µM, first compound 0.949 µM) was 32.8%, the viability, T/C (second compound 3.16 µM, first compound 3 µM) was 30.5% and the viability, T/C (second compound 10 µM, first compound 0.00949 µM) was 73%. The viability, T/C (second compound 10 µM, first compound 0.03 µM) was 65.9%, the viability, T/C (second compound 10 µM, first compound 0.0949 µM) was 61.5% and the viability, T/C (second compound 10 µM, first compound 0.3 µM) was 46.3%. For the same compound, the viability, T/C (second compound 10 µM, first compound 0.949 µM) was 39% and the viability, T/C (second compound 10 µM, first compound 3 µM) was 31.1%.

In the case of `Nc1ncn(C2CC(O)C(CO)O2)c(=O)n1` (stereo not given) + NC1CC1c1ccc(-c2cccc(O)c2)cc1, the IC50 (second compound 0.1 µM) is reported as greater than 1000 nM, the IC50 (second compound 0.316 µM) is reported as greater than 1000 nM and the IC50 (second compound 1 µM) is reported as greater than 1000 nM. It also gave an IC50 (second compound 3.16 µM) greater than 1000 nM, an IC50 (second compound 10 µM) greater than 1000 nM and a viability, T/C [1] of 103%. It also gave a viability, T/C [2] of 101%, a viability, T/C [3] of 96.3% and a viability, T/C [4] of 79.4%. It also gave a viability, T/C (second compound 0.1 µM, first compound 0.316 µM) of 83.6%, a viability, T/C (second compound 0.1 µM, first compound 1 µM) of 73.5% and a viability, T/C [5] of 87.8%. The viability, T/C [6] was 113%, the viability, T/C [7] was 87.8% and the viability, T/C [8] was 87.5%. It also gave a viability, T/C (second compound 0.316 µM, first compound 0.316 µM) of 85.4%, a viability, T/C (second compound 0.316 µM, first compound 1 µM) of 79.9% and a viability, T/C [9] of 91.2%. For the same compound, the viability, T/C [10] was 92%, the viability, T/C [11] was 95.5% and the viability, T/C [12] was 81.3%. For the same compound, the viability, T/C (second compound 1 µM, first compound 0.316 µM) was 86.5%, the viability, T/C (second compound 1 µM, first compound 1 µM) was 67.5% and the viability, T/C [13] was 94%. It also gave a viability, T/C [14] of 112%, a viability, T/C [15] of 93.7% and a viability, T/C [16] of 101%. For the same compound, the viability, T/C (second compound 3.16 µM, first compound 0.316 µM) was 93.8%, the viability, T/C (second compound 3.16 µM, first compound 1 µM) was 90% and the viability, T/C [17] was 94.3%. For the same compound, the viability, T/C [18] was 103%, the viability, T/C [19] was 90.7% and the viability, T/C [20] was 93.5%. The viability, T/C (second compound 10 µM, first compound 0.316 µM) was 84.8% and the viability, T/C (second compound 10 µM, first compound 1 µM) was 95.6%.
